# Results from a melting point compilation (Tetko et al.; mined from patent text by program, amines drawn as free bases though some values may be those of a salt).
row,Structure (SMILES),melting point
1,Cc1nc2ccccn2c1-c1csc(Nc2ccc(C(=O)Nc3ccccc3N)cc2)n1,161 to 165 °C
2,Cc1cc(C2=NN(c3nccs3)[C@H](C)Cc3cc4c(cc32)OCO4)ccc1[N+](=O)[O-],138 to 142 °C
3,O=C(c1ccc(Cl)cc1)N1N=C(C(F)(F)F)CC1(O)c1cc(F)ccc1F (centres undefined),110 to 113 °C
4,COc1cccc2c(=O)c(C)c3sc4ccccc4nc-3c12,170 to 171 °C
5,CC1(C)CCC(C)(C)c2cc(C3=NN(c4ccc(C(=O)O)cc4)CC3)ccc21,276 to 278 °C
6,CSCc1nnc2n1-c1sc(Cl)cc1C(c1ccccc1Cl)=NC2,200 to 202 °C
7,c1cnc2c(c1)ncn2CCCCc1nnnn1C1CCCCC1,94 to 95 °C
8,CC1=C(C(=O)OC2CC(C)(C)N(C)C(C)(C)C2)CC(C(=O)OC2CC(C)(C)N(C)C(C)(C)C2)=C(C)N1,232 °C
9,Cc1cc(Br)ccc1C1(CBr)OCCO1,86 °C
10,COC(=O)c1scc2nc(SCc3cc(OC)ccn3)[nH]c12,156 to 160 °C
11,CCOc1ccc(-c2nc(CCC(=O)c3ccccc3C(=O)OC)cs2)cc1OCC,91.7 to 92.9 °C
12,CN1CCN(c2cccc3ccc(-n4cnc5ccccc54)cc23)CC1,148 to 150 °C
13,O=C(O)CCCCN(Cc1ccccc1)Cc1ccccc1,202 to 205 °C
14,Cc1ccc(S(=O)(=O)N2CCC[C@H](C(C#N)(c3ccccc3)c3ccccc3)C2)cc1,148 to 150 °C
15,COC(=O)c1cc(N2CCSCC2)c(C(F)(F)F)cc1[N+](=O)[O-],68 to 82 °C
16,Cc1cc(-c2nn(CC(C)C)c(=O)c(O)c2C)ccc1F,107 to 110 °C
17,NC(=NC(=O)Cn1c(Cl)ccc1Cl)NC(=O)Cc1ccccc1,181 to 183 °C
18,CCCOC(=O)Cc1ccc(N[C@@H](CCC(N)=O)C(=O)O)cc1,178 to 179 °C
19,O=P(O)(O)OC(Cn1cncn1)(Cn1cncn1)c1ccc(F)cc1F,223 to 224 °C
20,O=C1c2c(-c3ccccc3)noc2CCC1CN1CCOCC1 (centres undefined),140 to 141 °C
21,COc1ccc2c(N)c([N+](=O)[O-])sc2c1,> 250 °C

row,Structure (SMILES),melting point
1,N#CNc1ccc2c3c(cccc13)CC2,163 to 165 °C
2,COC(=O)c1c(OC)ccc(NC(=O)C(F)(F)F)c1OC,112 to 113 °C
3,CC(C)(C)Oc1ccc2c(c1)Oc1ccccc1S2(=O)=O,108 to 110 °C
4,Clc1ccc(Nc2nncc3ccccc23)cc1,211 °C
5,O=C(NCCN1CCCCC1)c1nc(NCC(c2ccccc2)c2ccccc2)c2nc[nH]c2n1,222 °C
6,CC(C)N(C(=O)CN1C(=O)C(NC(=O)Nc2ccccc2)C(=O)N(c2ccccc2)c2ccccc21)c1ccccc1 (centres undefined),230 to 235 °C
7,CCOC1=C(C#N)C(c2ccccc2)=C2C(=O)N(CC)C(c3ccccc3)=C12,200 to 202 °C
8,O=C1NCCN1Cc1cccnc1,58 to 86 °C
9,CC(C)(C)OC(=O)Nc1ccc(C#Cc2ccccc2)cc1N,177 to 178 °C
10,COc1cc2c(c(Cl)c1Cl)SC(C1CCCC1)C2O (centres undefined),129 to 132 °C
11,CC(CC(=O)O)=NNC(=N)N,139 to 140 °C
12,O=C(NC(=O)c1ccccc1Cl)Nc1ccc(C=C(Br)Br)cc1,190 °C
13,Cn1c(C(F)(F)F)cc(=O)n(-c2ccc3snc(C4OCC(CS(C)(=O)=O)O4)c3c2)c1=O (centres undefined),184 to 188 °C
14,CCOc1ccc(CC2(C)CNCCN2Cc2ccccc2)cc1OCC (centres undefined),94 to 96 °C
15,Cc1nn(-c2ccccn2)c2ncc(C(=O)c3ccccc3)c(Cl)c12,177 to 178 °C
16,O=C1c2cc([N+](=O)[O-])ccc2OCCC1Br (centres undefined),115 to 118 °C
17,COc1ccc2cc(S(=O)(=O)Nc3cccc(Cl)c3C)cc(S(=O)(=O)Nc3cccc(Cl)c3C)c2c1,166 to 168 °C
18,COc1ccc(CC(=O)O)cc1OCCCc1cn(-c2ccc(C(F)(F)F)cn2)nc1C(C)C,122 to 123 °C
19,CCOC(=O)c1cn2c3c(cccc3c1=O)C1CCCCC12 (centres undefined),71 to 73 °C
20,Cn1nc(SCSc2nn(C)c3ccc(Cl)cc3c2=O)c(=O)c2cc(Cl)ccc21,352 to 354 °C
21,Cc1ccc2c3c(ccc2n1)OCC(CN1C2CCC1CC(O)(c1ccccc1)C2)O3 (centres undefined),162 to 165 °C

row,Structure (SMILES),melting point
1,O=C1NC(=O)C(c2ccc(Br)o2)O1 (centres undefined),126 to 129 °C
2,COc1ccccc1C1(O)C(=O)Nc2cc(Cl)c(Cl)cc21 (centres undefined),245 to 246 °C
3,CC(C)(C)OC(=O)OCn1c(C(=O)Nc2nc(-c3ccccc3)c(CCO)s2)cc2ccccc21,180 to 181 °C
4,O=C1NC(=O)C2(CC(O)c3ccccc32)N1 (centres undefined),260 to 263 °C
5,O=c1[nH]c2ncc(-c3ccc(O)cc3)nc2n1C1CCCC1,299 to 301 °C
6,CON=CNC(=O)c1ccc(C=NO)cc1C,88 to 91 °C
7,COc1ccc(CCC(N[C@@H](C)C(=O)N(CC(=O)O)C2Cc3ccccc3C2)C(=O)O)cc1OC (some centres undefined),160 to 165 °C
8,COC(=O)CCc1ccc(C#CC2(O)CN3CCC2CC3)c(CO)c1 (centres undefined),35.8 °C
9,CCCOc1ccc(S(=O)(=O)N2CCN(C(C)=O)CC2)c(-c2nc3cc(N)c(N)cc3c(=O)[nH]2)c1,177 to 180 °C
10,CON1C=C2N=NC3=C(N2C1)N(c1ccccc1Cl)CC=C3,190 to 193 °C
11,Cc1ccc2c(Cl)cc(S(=O)(=O)NCCc3ccc(N)cc3)c(O)c2n1,249 to 253 °C
12,COc1ccc(N(CCCC(=O)O)C(=O)C(C)N(C(C)=O)c2ccc(OC)cc2)cc1 (centres undefined),155 to 157 °C
13,O=C(NCc1ccc(Cl)cc1)c1n[nH]c2ncc(I)cc2c1=O,> 300 °C
14,CCOc1ccc(C(=O)NCCN2CCC(Oc3ccc(Cl)c(Cl)c3)CC2)cc1,118 to 120 °C
15,COc1ccc(C(C)(O)Cc2ccncc2)cc1OC1CCCC1 (centres undefined),99 to 101 °C
16,CCNC(=O)c1sc2ccccc2c1[Si](C)(C)C,131 to 134 °C
17,CCOCc1nc2c(N)nc3cccnc3c2n1CCCC(N)=O,231 to 232 °C
18,CCCCCCCCCCC1C(=O)NC(=O)NC1=O,190 °C
19,O=C1c2c(OCc3ccccc3)c(OCc3ccccc3)cc(OCc3ccccc3)c2-c2nn(CCNCCO)c3ccc(NCCNCCO)c1c23,186 to 188 °C
20,Cc1ccccc1S(=O)(=O)NC(=O)c1ccc2c(ccn2Cc2cccc([N+](=O)[O-])c2)c1,208 to 210 °C
21,CCOC(=O)C(=O)c1ccc(-c2ccc(-c3ccccc3)cc2)o1,91 to 94 °C

# The next lines start with the values.
row,melting point,Structure (SMILES)
1,107 °C,O=C(OCc1ccccc1)[C@@H](Cc1ccccc1)NS(=O)(=O)c1ccc2ccccc2c1
2,90 to 91 °C,Cc1oc(-c2ccccc2)nc1COc1ccc(COC(=O)Cc2cccc(OCc3ccc(OCc4nc(-c5ccccc5)oc4C)cc3)c2)cc1
3,> 230 °C,O=C(O)CC[C@H](NC(=O)c1ccc(CCn2cnc3nccc-3c2O)cc1)C(=O)O
4,131 to 132 °C,CCCCOC(=O)c1c(CSc2nccn2C)nc2cc(OC)c(OC)cc2c1-c1ccc(OC)c(OC)c1
5,176 °C,NC(=O)c1c[nH]c2cccc(OCc3ccccc3)c12
6,129 to 133 °C,COc1ccc(C(=Nc2c(Cl)cncc2Cl)NCc2ccccc2)cc1OC1CCCC1
7,95 to 98 °C,CCn1ncc2c(Cl)c3ccc(OC)cc3nc21
8,> 270 °C,Cc1csc2c(S(N)(=O)=O)c(C(N)=O)nn12
9,122 to 125 °C,CN(C)CCNC(=O)c1ccc(-c2ccc3nnn(Cc4ccc5ncccc5c4)c3n2)cc1F
10,32 to 34 °C,COc1ccc(CCCCCCCOc2ccccc2)cc1
11,175 to 179 °C,COc1ccc2c(-c3c(F)cccc3F)noc2c1Cl
12,112 to 114 °C,CC1CC(=Cc2ccccc2O)C(=O)O1 (centres undefined)
13,230 to 233 °C,O=C1C=Cc2cc3c(cc2=C1)C=C(S(=O)(=O)NCCN1CCOCC1)C(=O)C=3S(=O)(=O)NCCN1CCOCC1
14,60 to 62 °C,N=c1c2ccccc2ccc2ccccc12
15,183 to 184 °C,CN(C(=O)CNc1nc(-c2ccccc2)ncc1N)c1ccccc1
16,104 °C,O=C1c2c(n3c4c(cccc24)OCC3c2ccccc2)CCC1(Cl)Cl (centres undefined)
17,235 to 236 °C,CCN1CCN(c2ccnc3c(NC(=O)c4c(Cl)cccc4Cl)ccc(C)c23)C1=O
18,128 to 129 °C,CC(=O)SCc1ccc(C#Cc2ccc(C=O)cc2)cc1

row,melting point,Structure (SMILES)
1,66.5 to 67.5 °C,CSc1ccc2ccc3ccccc3c(=O)c2c1
2,149 to 150 °C,CC(=O)NC1(c2ccc(C(C)N3CCN(c4ccc(F)cc4)CC3)cc2)CC1 (centres undefined)
3,138 to 141 °C,C=CCOc1ncc(F)c(O)n1
4,198 °C,CC(C)NC(=S)N1CCc2[nH]cnc2C1c1ccccc1 (centres undefined)
5,> 220 °C,CCc1ccc(Oc2cnc(S)[nH]c2=O)cc1
6,257 °C,N#Cc1cc2c(cc1C(F)(F)F)[nH]c(=O)c(=O)n2OCC(=O)O
7,94 to 96 °C,COc1ccc(CC(NC(=O)OC(C)(C)C)C(=O)O)cc1 (centres undefined)
8,141 to 147 °C,Cc1c(C(O)C2CCc3c(c4ccccc4n3C)C2=O)ncn1C(c1ccccc1)(c1ccccc1)c1ccccc1 (centres undefined)
9,87 to 90 °C,Nc1ccnn1-c1c(F)cc(C(F)(F)F)cc1Cl
10,132 to 133 °C,Fc1ccccc1-c1nc(N2CCNCC2)nc2ccccc12
11,116 °C,COC(C)=CC(=O)NC1CCCCCCC1
12,233 °C,Cc1cccc(-c2nc3ccc(O)cc3n2Cc2ccccc2C(F)(F)F)c1
13,178 to 179 °C,COc1cc2ncnc(N3CCN(C(=O)NCc4ccsc4)CC3)c2cc1OC
14,134 to 142 °C,O=C(Nc1ccc(C(=O)N2Cc3ccccc3Cc3ccccc32)cn1)c1ccccc1-c1ccccc1
15,190 °C,Oc1ccc2c(c1)OC=C(CN1CCN(C(c3ccc(F)cc3)c3ccc(F)cc3)CC1)O2
16,206 to 208 °C,C=CCn1cnnc1-c1c(Cl)c(Cl)cc2nc(OC)c(OC)nc12
17,197 to 198 °C,O=C(Nc1ccccc1-c1nc2cccnc2o1)c1ccccc1
18,155 to 156 °C,CC(C)Oc1ccc2c(Cl)nc(C(=O)NCCO)c(O)c2c1
